Source: article PMC10899196, “Protective effect of microbisporicin (NAI-107) against vancomycin resistant Enterococcus faecium infection in a Galleria mellonella model” (Scientific Reports, 2024)
≈ marks a conversion by molar mass, not a printed value. Like-named read-outs stand apart in the source and are kept apart here. Ends that are not written are not given here.

Experiments:
[1] = system: van-B type E. faecium (ID 553); assay: microbe, parasite or virus in culture; format: cell-based, Enterococcus faecium
Protocol: Sixty-six bacteriocins from Syngulon PARAGEN collection and NAI-107 from Naicons, SRL were screened using the resazurin microtiter assay (REMA)[30],[31]. The MIC for the antimicrobials listed in Table 1 were determined according to the clinical and laboratory standard institute (CLSI) guidelines and the European Committee on Antimicrobial Susceptibility Testing (EUCAST) broth microdilution reference method for MIC determination in E. faecium[32],[33].

vanA E. faecalis A533 = conditions: administered intravenously to neutropenic mice; cited from earlier work
Excerpt: (§1) Bacteriocins have gained considerable attention as potential alternatives to traditional antibiotics due to their narrow-spectrum activity and a lower likelihood of inducing resistance[11],[12]. Most leaderless bacteriocins such as Lacticin Q (53 aa), Lacticin Z (53 aa), and Garvicin KS have proven to have inhibitory effects against a range of genera such as Listeria, Staphylococcus and ...

vanA E. faecium 569 = conditions: administered intravenously to neutropenic mice; cited from earlier work
Excerpt: as §1

[2] = system: vanB-type E. faecium (ID 553); assay: Galleria mellonella E. faecium infection model, in vivo efficacy
Protocol: G. mellonella larvae were treated with a range of doses of vanB-type E. faecium (ID 553) (1 × 10^6–1 × 10^9 CFU/mL) and observed for death alongside phosphate buffer saline (PBS) controls.
Injection of G. mellonella was carried out as described in Dijokaite et al.[21]. The last larval stage of G. mellonella (Terramania, Arnhem, NL) were used for the experiments. Only non-discoloured, healthy larvae were selected. The larvae were injected in the last left proleg using 0.3 mL U-100 insulin syringes (BD Micro-Fine).
Each test group consisted of two groups of 10 larvae per concentration of each bacteriocin or linezolid (10 µg/mL). 30 µl of PBS containing 2.7 × 10^7 CFU E. faecium was used to infect the G. mellonella larva. The larvae were treated with various concentrations of bacteriocins. One positive and two negative control groups were used. The positive control group received only the E. faecium inoculum in PBS. Out of the two negative control groups, one group underwent no manipulation, while the other group was injected with PBS only. Each antimicrobial agent was tested in a single experiment using larvae from the same batch and tested at the same time under identical conditions. Each group were incubated in sterile Petri dishes at 37 °C with a 5% (v/v) CO2 atmosphere for the length of the experiments.
Data were analyzed using GraphPad Prism v9. Survival plots were created using Kaplan–Meier survival curves. Statistical analysis was carried out using the Mantel-Cox test to compare survival curves between the PBS controls and each treatment arm. A P value of < 0.05 was considered statistically significant.

[3] = system: methicillin-resistant Staphylococcus aureus; conditions: cited from earlier work
Excerpt: (§2) There are a number of study limitations. […] This hypothesis was motivated by the growing problem of VRE infections. We acknowledge the limitations of this hypothesis. […] This would be of clinica ...

G. mellonella = G. mellonella model; cited from earlier work
Excerpt: as §2

[4] = cited from earlier work
Excerpt: This characteristic implies that NAI-107 would require parenteral administration in multiple doses per day for therapeutic use.

[5] = Enterococcus faecium, micro broth dilution method, van-B type E. faecium (ID 553), read-out: MIC
[6] = micro broth dilution method, van-B type E. faecium (ID 553)
[7] = micro broth dilution method, van-B type E. faecium (ID 553), molar value from deduced molecular weight
[8] = mouse, single subcutaneous dosing of 5, 20 and 80 mg/kg

Molecule: CC1(C)S[C@@H]2[C@H](NC(=O)[C@H](N)c3ccccc3)C(=O)N2[C@H]1C(=O)O [Ampicillin, reference compound]
- MIC [1, 5]: ≥ 32 µg/mL

Molecule: CC[C@H]1OC(=O)[C@H](C)[C@@H](O[C@H]2C[C@@](C)(OC)[C@@H](O)[C@H](C)O2)[C@H](C)[C@@H](O[C@@H]2O[C@H](C)C[C@H](N(C)C)[C@H]2O)[C@](C)(O)C[C@@H](C)C(=O)[C@H](C)[C@@H](O)[C@]1(C)O [Erythromycin, reference compound]
- MIC [1, 5]: ≥ 8 µg/mL

Molecule: CNC(C)C1CCC(N)C(OC2C(N)CC(N)C(OC3OCC(C)(O)C(NC)C3O)C2O)O1 (stereo not drawn) [Gentamicin, reference compound]
- MIC [1, 5]: ≥ 32 µg/mL

Molecule: CC(=O)NC[C@H]1CN(c2ccc(N3CCOCC3)c(F)c2)C(=O)O1 [Linezolid, reference compound]
- MIC [1, 5]: 2 µg/mL (≈ 5.93 µM)

Molecule: CN(C)[C@@H]1C(O)=C(C(N)=O)C(=O)[C@@]2(O)C(O)=C3C(=O)c4c(O)cccc4[C@@](C)(O)[C@H]3C[C@@H]12 [Tetracycline, reference compound]
- MIC [1, 5]: 0.25 µg/mL (≈ 0.563 µM)

Molecule: CN[C@H](CC(C)C)C(=O)N[C@H]1C(=O)N[C@@H](CC(N)=O)C(=O)N[C@H]2C(=O)N[C@H]3C(=O)N[C@H](C(=O)N[C@H](C(=O)O)c4cc(O)cc(O)c4-c4cc3ccc4O)[C@H](O)c3ccc(c(Cl)c3)Oc3cc2cc(c3O[C@@H]2O[C@H](CO)[C@@H](O)[C@H](O)[C@H]2O[C@H]2C[C@](C)(N)[C@H](O)[C@H](C)O2)Oc2ccc(cc2Cl)[C@H]1O [Vancomycin]
- MIC ([1]; Enterococcus faecium): 64 µg/mL (≈ 44.2 µM)

Molecule: MSWLNFLKYIAKYGKKAVSAAWKYKGKVLEWLNVGPTLEWVWQKLKKIAGL [Aureocin A53]
- MIC [1, 6]: 1.56 µg/mL
- MIC [1, 7]: 0.2609 µM/L

Molecule: Microbisporicin
- in vivo efficacy (vanA E. faecalis A533): effective
- in vivo efficacy (vanA E. faecium 569): effective
- mortality compared with the linezolid (10 µg/mL) treated group ([2]; 16 µg/mL group, 120 h): significantly lower
- dose groups with the lowest mortality ([2]; doses tested 2, 4, 8 and 16 µg/mL, 120 h): 8 µg/mL and 16 µg/mL
- in vivo efficacy (survival of infected larvae) ([2]; larvae infected with 2.7 × 10^7 CFU E. faecium in 30 µl PBS, 20 larvae per group, 2-16 µg/mL, 120 h at 37 °C): effective in vivo at all doses tested
- efficacy against methicillin-resistant Staphylococcus aureus in rat model [3]: efficacious
- toxicity in rat model [3]: non-toxic
- concentration up to which no toxicity was exhibited (G. mellonella): ≥ 64000 ng/mL
- MIC [1, 6]: 4 µg/mL
- MIC [1, 7]: 0.00178 µM/L
- bioavailability ([4]; after intramuscular, intravenous and subcutaneous administration): good bioavailability
- AUC [4, 8]: 27000 to 276000 ng·h/mL
- Cmax [4, 8]: 4000 to 22000 ng/mL
- elimination half-lives [4, 8]: 4.2 to 8.2 h
- oral absorption ([4]; oral): not absorbed orally

Molecule: Teicoplanin [reference compound]
- MIC [1, 6]: 0.5 µg/mL
